{
  "source": "patent US20060069038A1",
  "about": "“Irreversible caspase-3 inhibitors as active site probes” (priority 2003, published 2006)",
  "key": {"[1]": {"molecular_target": "T1, purified recombinant human caspase-3 (Homo sapiens, UniProt P42574)", "T1 construct": "Active site shared between large and small caspase subunit", "T1 sequence (P42574 29-175 limits assumed)": "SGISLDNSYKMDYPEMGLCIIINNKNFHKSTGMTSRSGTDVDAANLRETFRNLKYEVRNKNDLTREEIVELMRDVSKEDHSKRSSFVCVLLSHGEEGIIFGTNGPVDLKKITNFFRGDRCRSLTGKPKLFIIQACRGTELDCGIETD", "T1 sequence (P42574 176-277 limits assumed)": "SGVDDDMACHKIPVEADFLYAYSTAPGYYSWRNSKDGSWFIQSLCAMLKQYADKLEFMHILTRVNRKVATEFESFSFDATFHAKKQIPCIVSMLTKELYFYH", "experiment": "Caspase inhibitor titration by [125I]-M808 labeling of purified recombinant human caspase-3 (SDS-PAGE)", "format": "binding", "procedure": "FIG. 3. Potency assessment caspase inhibitors by [^125]-M808 labeling and by DEVD-AMC cleavage activity. A, B-Caspase inhibitor titration and [^125]-M808 labeling with purified recombinant human caspase-3. A-M791 with 5 minute labeling reaction and M791 with 60 minute labeling reaction. In A, the indicated IC50 was defined as the concentration of M791 that reduced the intensity of [^125I]-M808-labeled p17 subunit of caspase-3 by 50%. B-Caspase inhibitor titration and DEVD-AMC cleavage activity with recombinant human caspase-3 that had been incubated with indicated concentration of M791. Under the fluorogenic assay conditions Ki=IC50/2.\nThe determination of caspase activity by [^125I]-M808 labeling was performed by pre-incubating purified recombinant human caspase-3 with indicated amounts of caspase inhibitor (M791) or vehicle (DMSO), for 1 hour at 25° C. in ICE buffer III (50 mM Hepes-KOH pH 7.0, 0.1% CHAPS, 10% sucrose, 2 mM EDTA), supplemented with 5 mM DTT. [^125I]-M808 was added to a final concentration of 1.25 μM and incubated for 5 min at 25° C. Active caspases in tissue or cell extracts were labeled by incubating 60-80 μg of lysate with [^125I]-M808 for 15 minutes at 25° C. Labeling was stopped by addition of Laemli buffer (2% SDS; 0.35 M O-mercaptoethanol; 50 mM Tris-Cl pH 6.8; 10% glycerol; 0.05% bromophenol blue) and by heating at 95° C. for 5 minutes. […]"}, "caspase-3": {"molecular_target": "T2, caspase-3 (Homo sapiens, UniProt P42574)", "T2 construct": "endogenous in cells; host or cells: Jurkat cells, apoptosis induced with camptothecin", "T2 sequence (P42574 29-175 limits assumed)": "T1 sequence (P42574 29-175 limits assumed)", "T2 sequence (P42574 176-277 limits assumed)": "T1 sequence (P42574 176-277 limits assumed)", "experiment": "Caspase-3 western blot on camptothecin-treated Jurkat cell extracts", "format": "cell-based", "conditions": "camptothecin-treated Jurkat cells, FIG. 4", "procedure": "Jurkat cells (ATCC # TEB-152) were maintained in RPMI1640 supplemented with 10% FBS, 2 mM L-glutamine and antibiotics (penicillin and streptamycin). Apoptosis was induced on cells (1 million cells/ml) that had been starved for 36 hours in CytoSf4 media (Kemp technologies) by addition of camptothecin (Sigma; 3 μg/ml). NT2 cells (ATCC 3813555) were cultured in DMEM+10% FBS+2 mM L-glutamine and antibiotics. Apoptosis induced with camptothecin (5 μg/ml) in culture media.\nDenatured protein extracts in 1× Laemli buffer were resolved through a 18% acrylamide gradient SDS-PAGE gel (Invitrogen) at 30 mA in Tris-Glycine buffer. Samples labeled with [^125I]-M808 were migrated until the dye front reached 0.5 cm above the end of the gel, and acrylamide 1 cm above the dye front was cut out to remove all free [^125I]-M808 and reduce background. The gels were fixed for 45 minutes in a 40% Methanol-10% Acetic acid solution and dried for 90 min at 80° C. before exposure on MS Kodak film with MS intensifying screens. For Western blotting, proteins were transferred onto a […] nitrocellulose membrane (Invitrogen) in Tris-Glycine-20% methanol buffer at 40V for 2 hours. Non-specific protein binding was minimized by incubating the membranes for 1 hour in blocking buffer (5% non-fat milk/TBS/0.1% Tween-20). […] Densitometry was performed using a BioRad instrument and QuantityOne software. […]"}, "spectrin cleavage": {"test_system": "spectrin cleavage", "experiment": "Spectrin cleavage in cultured thymocytes", "format": "cell-based", "conditions": "Rattus norvegicus, Thymocyte, N. Methot et al., in press, read-out: IC50, inhibition of spectrin cleavage"}},
  "note": "Read-outs that look alike come from different tables or passages of the source.",
  "data": [
    {"smiles": "COc1ccc(-c2nc(C)no2)cc1CC(=O)N[C@H](C(=O)N[C@@H](CC(=O)O)C(=O)CSCc1ccccc1)C(C)C", "note": "[Example M791, (3S)-5-(benzylthio)-3-[(N-{[2-methoxy-5-(3-methyl-1,2,4-oxadiazol-5-yl)phenyl]acetyl}-L-valyl)amino]4-oxopentanoic acid]", "values": [
      {"measurement": "IC50", "setting": "[1]; [125I]-M808 added for 5 minutes, read-out: IC50 by [125I]-M808 labeling (50% reduction of labeled p17 subunit)", "value": 0.45, "unit": "nM"},
      {"measurement": "IC50", "setting": "[1]; incubating with [125I]-M808 for 60 minutes instead of 5, read-out: apparent IC50 by [125I]-M808 labeling", "value": 1, "unit": "nM"},
      {"measurement": "effect on caspase-3 processing (western blot)", "setting": "caspase-3", "value": "prevents the auto-processing of p20 caspase 3 into p19 and p17"}
    ]},
    {"smiles": "CCCCCN(C)CC(=O)[C@H](CC(=O)O)NC(=O)[C@H](CC)n1cc(C(C)(C)C)nc(NCc2nonc2C)c1=O", "note": "[Example M867, (3S)-3-({(2S)-2-[5-tert-butyl-3-{[(4-methyl-1,2,5-oxadiazol-3-yl)methyl]amino}-2-oxopyrazin-1(2H)-yl]butanoyl}amino)-5-[methyl(pentyl)amino]-4-oxopentanoic acid]", "values": [
      {"measurement": "IC50", "setting": "spectrin cleavage", "value": 90, "unit": "nM"}
    ]}
  ]
}
